In one data set the test system is Caco-2 cell monolayers. Nature of the data set: In vitro insulin permeation and TEER across Caco-2 cell monolayers, PE:insulin in microcontainers or solution. It counts as in vitro ADME. To be noted: Caco-2, apical to basolateral, 2 h, 37 °C, 75 rpm, hHBSS pH 7.4 with 0.05% BSA, PE:insulin 1:4 w/w, RP-HPLC UV 214 nm, n = 3 passages in triplicate. Background: Caco-2 monolayers are a common model of the intestinal barrier.

The subject of another data set is epithelial integrity. To be noted: cited from earlier work. From the text: The effect of local high PE concentrations on the monolayer under the opening of C10-releasing MCs has previously been visualized by laser-scanning confocal microscopy of cell monolayers cultured on Transwell® filters. Furthermore, we have previously shown that the monolayers, u ...
Data set [1] concerns porcine intestinal tissue. Nature of the data set: Ex vivo intestinal permeation study in Franz diffusion cells. It counts as in vitro ADME, pig. The settings on record: Franz diffusion cell, hDMEM, 37 °C, 3 h, MC chip on mucosa, insulin by ELISA, n = 3. In general terms: In an ELISA, binding on a coated surface is turned into a signal by an enzyme label.
Protocol: The jejunum and ileum were collected from an anaesthetized pig (approx. 40 kg) immediately before it was euthanized. […] Intestinal segments of 10–20 cm were prepared and stored at −20 °C until the day of the permeation study. Prior to the study, a segment was thawed in 10 mM HEPES-buffered DMEM (hDMEM) and longitudinally cut open. Luminal contents were washed away with hDMEM and the muscularis was removed using tweezers before the mucosa was cut into 4 × 4 cm pieces and placed in Franz diffusion cells. Each receptor compartment was filled with 7 mL of hDMEM facing the serosal side of the intestinal tissue. The donor side, facing the mucosa, was filled with 1.5 mL FD70 solution (100 µg/mL) in hDMEM to imitate the inclusion of a pathogen. Permeation was initiated by placing a chip of loaded MCs directly on top with the openings facing the mucosa.
Data set [2] relates to Caco-2 cell monolayers with apical α-chymotrypsin. In words: Combined in vitro permeation and proteolysis. To be noted: absence of protease inhibition (insulin:SDS:MCC MCs), apical α-chymotrypsin 0.49 U/mL, 37 °C, RP-HPLC.
Protocol: Cell culturing was done in DMEM supplemented with FBS (10%, v/v), L-glutamine (2 mM), penicillin (100 U/mL), streptomycin (100 µg/mL) and NEAA (1%, v/v) for 21–23 days at 37 °C and 5% CO2 with a final density of 1 × 10^5 cells/cm^2. […] The transepithelial electrical resistance (TEER) of the Caco-2 cell monolayers was measured upon equilibration to room temperature using an Epithelial Volt/Ohm Meter (World Precision Instruments, Sarasota, FL, USA) with Endohm™ chambers. […] The MC chips were then removed from the Caco-2 cell monolayers, followed by washing twice with hHBSS before TEER was recorded again.
The compatibility of integrating proteolysis in the in vitro permeation setup was then tested by measuring TEER and viability as the metabolic activity of Caco-2 cell monolayers after 2 h of apical exposure to different concentrations of α-chymotrypsin (0, 10, 50 and 100 µg/mL) in hHBSS. Viability was determined after washing the cells with fresh hHBSS followed by the apical addition of 1.5 mL freshly made MTS (240 µg/mL) and PMS solution (2.4 µg/mL) in hHBSS before incubation in dark conditions for 1.5 h with 75 rpm orbital shaking at 37 °C. The absorbance at 492 nm of three 100 µL samples from each well was measured in a 96-well plate using a Multiskan MS 352 Microplate Reader (Labsystems, Helsinki, Finland). […]
Data set [3] has as its target α-chymotrypsin from bovine pancreas (Bos taurus, UniProt P00766). To be noted: insulin 600 µg/mL, FaSSIF, 37 °C, RP-HPLC.
Protocol: The compatibility of integrating proteolysis in the in vitro permeation setup was then tested by measuring TEER and viability as the metabolic activity of Caco-2 cell monolayers after 2 h of apical exposure to different concentrations of α-chymotrypsin (0, 10, 50 and 100 µg/mL) in hHBSS. Viability was determined after washing the cells with fresh hHBSS followed by the apical addition of 1.5 mL freshly made MTS (240 µg/mL) and PMS solution (2.4 µg/mL) in hHBSS before incubation in dark conditions for 1.5 h with 75 rpm orbital shaking at 37 °C. The absorbance at 492 nm of three 100 µL samples from each well was measured in a 96-well plate using a Multiskan MS 352 Microplate Reader (Labsystems, Helsinki, Finland).
For data set [4] the following is noted: oral dosage form of insulin using C10, high doses required; cited from earlier work.
For data set [5] the following is noted: in vivo; cited from earlier work. An excerpt: For overcoming the absorption barrier, PEs have been developed and studied both for paracellular enhancement by tight junction opening and transcellular e ...

For the compound `CCCCCCCCCC(=O)[O-].[Na+]` [C10, n-Capric acid sodium salt], the “potency as PE based on the insulin permeation rates” value in the data set with Caco-2 cell monolayers was “equal in vitro potency to C12-carnitine”. In addition, the “concentration inducing in vitro permeation” value in the data set on epithelial integrity (in the order) is about 10 mM.
As to `CCCCCCCCCCCCOS(=O)(=O)[O-].[Na+]` [SDS, sodium dodecyl sulfate], the “potency as PE based on the insulin permeation rates” value with Caco-2 cell monolayers was “significantly more potent PE when compared to C10 and C12-carnitine”. Besides, in data set [1], the “insulin permeation across porcine intestinal tissue” value was “significantly higher insulin permeation”. In addition, the “barrier integrity after exposure” value in the data set with epithelial integrity (2 h exposure to 0.40 mM SDS) is “irreversible deterioration of barrier integrity”. Moreover, the “SDS concentration resulting in immediate loss of epithelial integrity” value with epithelial integrity (concentrations as low as) is 0.40 mM.
With insulin (human recombinant), the “insulin digested on the apical side after 2 h” value in data set [2] is reported as “Almost all”. Besides, the native insulin remaining entry in data set [3] (after 45–60 min, without STI, α-chymotrypsin 0.49 U/mL) was “approximately 20%”. The “native insulin degraded after 2 h” value in data set [3] (α-chymotrypsin 10 µg/mL (0.49 U/mL), 12 µg/mL STI, n = 3) was “more than 90%”. Also, in data set [4], the glycemic control result is “glycemic control similar to subcutaneously administered insulin”.
As to semaglutide, in data set [5], the oral bioavailability is 0.1–1.2%.

These data come from article PMC7023435 (Pharmaceutics, 2020).
